Source: US10716797B2, “Steroid alkaloids and compositions and kits thereof” (priority 2013, dated 2020)
Entries after “also recorded” stand apart in the source; their conditions may differ.

Assays:
[1] = system: methicillin-resistant Staphylococcus aureus (MRSA) strains; experiment: MIC against MRSA strains; format: cell-based
Experimental: (§1) Method. The minimal inhibitory concentrations (MICs), (i.e. lowest concentration of an antimicrobial that will inhibit the visible growth of a microorganism after incubation), of test compounds were determined against the normal or SCV strains of bacterial species from the Firmicutes phylum. Briefly, MICs were determined using the microdilution method in 96-well plates (Clinical and Laboratory Standards Institute (CLSI), 2011). Bacteria were inoculated at ˜10^5-10^6 CFU/mL and incubated at 35° C. for 20 h (normal strains) or 48 h (SCVs) in brain heart infusion (BHI) broth in order to allow SCVs to reach maximal growth as previously described (Mitchell et al., 2012). Then OD595 nm was read on a microplate reader. […] In this example the range of compound concentrations tested was 0.03 to 64 μg/ml using doubling increments. Strain Staphylococcus aureus NewbouldΔhemB (hemB) was also used in the experiments and is a laboratory-derived stable SCV created by the insertion of the macrolide resistance gene ermA in the hemB gene of this strain to create the SCV phenotype (defective electron transport chain and respiratory deficiency) through inactivation of hemin biosynthesis (Brouillette et al., 2004).
(§2) In the present Example the range of compound concentrations tested, using doubling increments, was 0.03 to 64 μg/ml for Compound 14 and up to 1024 μg/ml for gentamicin (GEN), kanamycin (KAN) and cefalexin (CEF) when these compounds were used alone. Compound 14 (Cpd 14) was used at a fixed concentration of 4 μg/ml when added to other antibiotics. The combination of CEF and KAN was used in a 3:2 ratio and doubling increments were used to test the antibacterial activity against MRSA in the absence or presence of Compound 14.

[2] = system: Listeria monocytogenes ATCC 13932 SCVs; experiment: Time-kill experiments, Listeria monocytogenes SCV; format: cell-based; conditions: 8 μg/mL; 8 h and 24 h; hydrochloride
Experimental: Time-kill experiments were performed in order to determine whether the effect of test compounds on SCVs of bacterial species of the Firmicutes phylum is bacteriostatic (prevents growth) or bactericidal (kills cells).
Listeria monocytogenes ATCC 13932 SCVs were produced by plating a large inoculum (˜10^5 bacterial cells) on brain heart infusion agar (BHIA) plates containing various amounts of gentamicin in order to create a selective pressure for the generation of electron transport-deficient bacteria with the SCV phenotype, which are known to be less susceptible to aminoglycoside antibiotics (e.g., gentamicin). Indeed, aminoglycosides require the proton-motive force in order to penetrate the bacterium (Bryan and Kwan, 1981). As expected, SCV isolates were collected from such selective plates and were then passaged on drug-free medium to assess stability of the SCV phenotype. SCV isolates keeping the SCV phenotype after several passages on drug-free medium were then used for experiments described below.
One of the L. monocytogenes SCV described above was used in time-kill experiments as described in Example 22. […] At some time-points during growth at 35° C. (225 RPM), bacteria were sampled, serially diluted and plated on BHIA for colony-forming unit (CFU) determinations (i.e., viable bacterial counts). Plates were incubated for 48 h at 35° C. […]

S. aureus hemB (SaR1) = experiment: MIC against tomatidine-resistant SCV mutant SaR1; format: cell-based, Staphylococcus aureus
Experimental: At each passage, using a microdilution method in 96-well microplates, S. aureus hemB was inoculated at ˜10^5-10^6 CFU/ml and incubated at 35° C. for 48 h. The range of tomatidine concentrations tested was 0.03 to 64 μg/ml using doubling increments. The concentration of gentamicin was fixed at 4 μg/mL when it was used in combination with tomatidine. At each passage, the minimal inhibitory concentrations (MICs) (i.e. lowest concentration of an antimicrobial that inhibits the visible growth of bacteria), of tomatidine was determined. The bacteria used as inoculum for the next passage were from the well preceeding the well showing the MIC (i.e. the well containing half the MIC). At each passage, the population of bacteria serving as the inoculum for the next passage was spread on BHI agar plates and three isolated colonies were collected and frozen until used for whole-genome sequencing.

MRSA USA300 = experiment: MIC by microdilution, alone or in combination, MRSA USA300; format: cell-based, Staphylococcus aureus; conditions: agent used alone
Experimental: as §1, §2

[3] = system: S. aureus SCV strain CF07-S in polarized Calu-3 epithelial cells; experiment: Intracellular replication of SCV in Calu-3 cell infection assay; format: cell-based, Staphylococcus aureus; conditions: 2 and 4 μg/ml; 48 h post-internalization; vs DMSO-treated cells; hydrochloride
Experimental: Human airway epithelial cells, the Calu-3 cell line ATCC HTB 55, were used in this cell culture assay. Cells were cultured in Eagle's Minimum Essential Medium (EMEM) supplemented with 0.1 mM MEM nonessential amino acids, 1 mM of sodium pyruvate, 100 U/ml penicillin, 0.1 mg/ml streptomycin, 2.5 μg/ml of Fungizone and 10% fetal bovine serum (FBS) at 37° C. in 5% CO2. For routine culture, 4 μg/ml of puromycin was added to culture media. All cell culture reagents were purchased from Wisent (St-Bruno, QC, Canada). Cell infection assays were performed as previously described (Mitchell et al., 2011). Cells were seeded at 2.5×10^5 cells/inserts on 12-well Transwell™ plates and cultured for 9 to 10 days in an air:liquid system. The complete medium in the basal compartment was replaced by the invasion medium (1% FBS and no antibiotics) 18 h before assays. Inocula were prepared by suspending bacteria grown 20 h on BHIA plates in ice-cold PBS. Bacteria (the S. aureus SCV strain CF07-S; Mitchell et al., 2011) were then washed three times in ice-cold PBS and suspended in the invasion medium supplemented with 0.5% BSA at a density of approximately 4×10^8 CFU/ml. […] Fresh invasion medium supplemented with lysostaphin was also added 1 h before cell lysis to ensure that only intracellular bacteria were counted. […]

“3-(N-aminoethyl)-aminotomatidine hydrochloride [Compound 14]” was tested, and the “potentiation fold on addition of Compound 14 to cefalexin:kanamycin combination” value ([1]; MRSA strains resistant to both cefalexin and kanamycin) was 32 fold, the “MIC on MRSA strains” value ([1]; used alone, tested MRSA strains (kanamycin: two of the strains)) was 16 µg/mL and the “bactericidal effect on L. monocytogenes SCV (CFU)” value [2] was “efficiently kills; also recorded: superior bactericidal activity”. For the same substance, the “Fold increase in resistance (MIC for mutant / MIC for NewbouldΔhemB)” value (S. aureus hemB (SaR1); mutant SaR1) was 16 fold, the MIC (S. aureus hemB (SaR1); tomatidine-resistant mutant SaR1) was 8 µg/mL and the MIC (MRSA USA300) was 16 µg/mL. For the same substance, the “intracellular SCVs in Calu-3 cells (CFU)” value [3] was “can significantly decrease the infection; also recorded: significantly less SCVs”.
